Measurements taken from patent US20230372361A1, “USE OF OXYGENATED CHOLESTEROL SULFATES FOR TREATING INFLAMMATORY CONDITIONS” (Durect Corporation, priority 2020, published 2023).
Where two headings read alike, the source gives them in different places.

Legend:
[1] = tested on: Huh-7 cells; assay: Whole genome bisulfite sequencing (WGBS), promoter 5mCpG demethylation; type: cell-based, human; settings: 25 μM, 4 hours
Protocol: Huh-7 and HepG-2 cells were cultured in DMEM media supplemented with 10% heat-inactivated fetal bovine serum (FBS), high glucose (HG, 4.5 g/L) at 37° C. in a humidified atmosphere of 5% CO2.
Each sample, 2 was sent to EpigenDx, Inc. (Hopkinton, MA) for analysis of global methylation bisulfite sequencing. The same samples, 6 μg, were sent to Novogene Co., Ltd (Tianjin, China) for analysis of whole genome bisulfite sequencing (WGBS). Total RNA was isolated using the Promega SV total RNA isolation system (Madison, WI) with DNase treatment. Each sample, 2 was used for the first-strand cDNA synthesis as recommended by the manufacturer (Invitrogen, Carlsbad, CA). […] Relative messenger RNA (mRNA) expression was quantified with the comparative cycle threshold (Ct) method using the primer set shown in Table 1.1 and was expressed as 2^−ΔΔct.
Analysis of Whole Human Genome Bisulfite Sequencing (WGBS) Each sample, 5.2 μg of genomic DNA spiked with 26 ng lambda DNA, was fragmented by sonication to 200-300 bp with Covaris S220, followed by end repair and adenylation. […] These DNA fragments were treated twice with bisulfite using EZ DNA Methylation-Gold™ Kit (Zymo Research) before the resulting single-strand DNA fragments were PCR amplified using KAPA HiFi Hot Start Uracil and Ready Mix (2×). […]

[2] = set-up: species or system rats; settings: rat, in vivo, po, 75 mg/kg
Protocol: The terminal elimination phase T1/2 was 27.3 hours.

[3] = Plasma pharmacokinetics of radioactivity, single intravenous dose; type: in vivo, male Sprague Dawley rats; settings: single intravenous (bolus) dose 10 mg/kg; total radioactivity
Protocol: (§1) Nine male Sprague Dawley rats (Group 1) were designated for the pharmacokinetic phase, 3 male Sprague Dawley rats (Group 2) for the excretion mass balance phase, and 7 male Sprague Dawley rats (Group 3) and 9 male Long Evans rats (Group 4) for the tissue distribution phase. All animals received a single intravenous dose of [^14C]-25HC3S at 10 mg/kg and a target radioactivity of 225 μCi/kg. Blood samples were collected from all Group 1 animals at approximately 0.083, 0.25, 0.5, 1, 2, 4, 8, 12, 24, 48, and 72 hours post-dose. Urine and feces were collected from all Group 2 animals periodically through 168 hours post-dose. […] Following blood collection, animals were euthanized by CO2 inhalation and carcasses frozen in a dry ice/hexane bath for processing by quantitative whole body autoradiography. Whole blood, plasma, urine, feces, cage rinse, and cage wash were analyzed for total radioactivity by liquid scintillation counting.

[4] = rat, in vivo, po, 75 mg/kg
Protocol: Pancreas and liver concentrations ranged from 23,500 ng equiv./g to 28,100 ng equiv./g. Uveal tract and brain concentrations were lowest relative to the other tissues and were approximately 1000 ng equiv./g. Skin, thymus, prostate, and pituitary tissue concentrations were <3000 ng equiv./g. Remaining tissues had concentrations between 3600 ng-equiv./g and 10,700 ng equiv./g. […] As calculated using AUClast, the tissue:plasma ratios were highest for the small intestine (wall, 15.4) followed by the liver and adrenal gland at 6.96 and 6.64, respectively. High liver and small intestine concentrations are consistent with oral administration and biliary (fecal) excretion.

[5] = set-up: species or system rats; settings: Sprague Dawley, rat, in vivo, po, 75 mg/kg
[6] = Tissue distribution by quantitative whole body autoradiography, intravenous; type: in vivo, male Sprague Dawley rats; settings: iv 10 mg/kg
Protocol: as §1

[7] = Tissue distribution by quantitative whole body autoradiography, intravenous, pigmented animals; type: in vivo, male Long Evans rats; settings: iv 10 mg/kg
Protocol: as §1

[8] = tested on: Huh-7 cells; assay: Real-time RT-PCR of key gene expression; type: cell-based, human; settings: 6.25-50 μM, 1-8 hours
Protocol: FIGS. 3A-3D. Expression of key genes related to signaling pathways. […] Key Genes and their targeting genes expression were determined by RT-PCR analysis. […] Each sample, 2 was sent to […], Inc. (Hopkinton, MA) for analysis of global methylation bisulfite sequencing. The same samples, 6 μg, were sent to Novogene Co., Ltd (Tianjin, China) for analysis of whole genome bisulfite sequencing (WGBS). Total RNA was isolated using the Promega SV total RNA isolation system (Madison, WI) with DNase treatment. […] Real-time RT-PCR was performed using SYBR Green as the indicator on ABI 7500 Fast Real-Time PCR System (Applied Biosystems, Foster City, CA). Amplifications of β-actin or GAPDH were used as internal controls. Relative messenger RNA (mRNA) expression was quantified with the comparative cycle threshold (Ct) method using the primer set shown in Table 1.1 and was expressed as 2^-ΔΔct.

plasma Cmax [2]: 3800 ng equiv./g | mean plasma C0 [3]: 25,900 ng-equiv./g | tissue:plasma ratio, adrenal gland ([4]; male, Sprague Dawley): 6.64 | tissue:plasma ratio, liver ([4]; male, Sprague Dawley): 6.96 | tissue:plasma ratio, small intestine (wall) ([4]; male, Sprague Dawley): 15.4 | Cmax in small intestine (wall) [4]: 424,000 ng equiv./g | Cmax in stomach (wall) [4]: 204,000 ng equiv./g | whole blood AUClast [4]: 127,000 h·ng equiv./g | dose recovered in urine, feces, and cage rinse [5]: approximately 94.5 % of the dose | plasma:whole blood AUClast ratio [6]: 0.79 | tissue:plasma ratio, liver ([6]; calculated using AUClast): 11.4 | tissue:plasma ratio, small intestine (wall) ([6]; calculated using AUClast): 7.44 | AUClast in liver ([6]; derived radioactivity): ≤ 364,000 h·ng/g | binding to pigmented or non-pigmented skin or the uveal tract [7]: no difference | plasma or whole blood concentrations versus Sprague Dawley rats ([7]; first 168 hours post-dose): no substantial difference
Compound: C[C@H](CCCC(C)(C)O)[C@H]1CC[C@H]2[C@@H]3CC=C4C[C@@H](OS(=O)(=O)O)CC[C@]4(C)[C@H]3CC[C@]12C [25HC3S, 25-hydroxycholesterol-3-sulfate]
hypomethylation levels across genomic functional regions versus vehicle [1]: significantly higher hypomethylation levels than vehicle | tissue concentrations by 168 hours post-dose [4]: near or below the quantitation limit in all tissues except adrenal gland and liver | tissue distribution of parent and/or metabolites [4]: broadly distributed and detected by quantitative whole body autoradiography in all tissues except the eye (lens) | tissue concentrations by 168 hours post-dose [6]: below quantitation limit in all tissues except adrenal gland, harderian gland, liver, and small intestine | tissue distribution of parent and/or metabolites ([6]; Group 3): broadly distributed and detected by quantitative whole body autoradiography in all tissues except the eye (lens) | decrease of FAS gene expression [8]: ~90% | decrease of HMGR gene expression [8]: ~90% | increase of CREB5 expression [8]: up to 20 fold | increase of DUSP8 expression [8]: 5 fold | increase of PGC1A expression [8]: 12 fold
